Eleven compounds from ChEMBL document CHEMBL1201862, “PubChem BioAssay data set” (2004) can be followed below.

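Each compound was tested at five concentrations against cells in 96-well plates for 48 hours. GI50: concentration for 50% inhibition of growth.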 The source made the active and inactive calls. Cut-off read from the data, not from the text of the source: active = GI50 up to about 1.1 µM and inactive = higher.

Test in all cases: NCI tumour cell line growth inhibition, 48 h
Assay [1] relates to MDA-MB-231.
The subject of assay [2] is OVCAR-8.
For assay [3], the system named is M14.
Assay [4] concerns HCT-15.
The test system of assay [5] is CAKI-1.
Assay [6] relates to NCI-H226.
Assay [7] concerns RXF 393.
In assay [8] the test system is SK-OV-3.
In assay [9] the test system is MCF7.
Assay [10] deals with K562.
Assay [11] has as its system SK-MEL-2.
Assay [12] concerns SR.
For assay [13], the system named is UACC-257.
The test system of assay [14] is SK-MEL-5.
For assay [15], the system named is MOLT-4.
For assay [16], the system named is UO-31.
Assay [17] has as its system SF-539.
In assay [18] the test system is OVCAR-4.
Assay [19] relates to NCI-H460.
For assay [20], the system named is CCRF-CEM.

With `CC(C)(C)c1ccc(CN2CCN(C(c3ccccc3)c3ccc(Cl)cc3)CC2)cc1` (configuration not stated), the GI50 was > 100 µM (inactive) in assay [1]; > 100 µM (inactive) in assay [2]; 33.4 µM (inactive) in assay [3]; 29.9 µM in assay [4]; > 100 µM (inactive) in [5]; 22.1 µM (inactive) in assay [6]. For the same compound, the GI50 is 24.4 µM (inactive) in [7]; > 100 µM (inactive) in assay [8]; 40.6 µM (inactive) in assay [9]; 36.6 µM (inactive) in assay [10]; 31 µM (inactive) in assay [11]; 62.2 µM (inactive) in [12]. Moreover, the GI50 is 35.9 µM (inactive) in assay [13]; 27 µM (inactive) in assay [14]; 44.6 µM (inactive) in [15]; 63.5 µM (inactive) in assay [16]; 30.3 µM (inactive) in assay [17]; > 100 µM (inactive) in assay [18]. Besides, in assay [19], the GI50 was 95.1 µM (inactive).

Consider `O=C1c2cscc2C(=O)c2c(OCc3ccccc3)ccc(OCc3ccccc3)c21`, for which the GI50 in [1] was > 100 µM (inactive); in [2] it was > 100 µM (inactive); in [3], > 100 µM (inactive); in assay [5] it was > 100 µM (inactive); in [6], > 100 µM (inactive); in [7], 75.7 µM (inactive). Also, the GI50 in [8] is > 100 µM (inactive); in [9], > 100 µM (inactive); in assay [10], 61.1 µM (inactive); in assay [12], 54 µM (inactive); in [20], 53.8 µM (inactive); in assay [13], > 100 µM (inactive). In addition, the GI50 in assay [14] is > 100 µM (inactive); in assay [15] it was > 100 µM (inactive); in [16] it was 62.5 µM (inactive); in [17], > 100 µM (inactive); in [18], > 100 µM (inactive); in assay [19], > 100 µM (inactive).

Turning to `CCN1C/C(=C\c2ccc(Cl)cc2)c2[nH]c(=O)c(C#N)c(-c3ccc(Cl)cc3)c2C1`, the GI50 in assay [1] was > 100 µM (inactive); in [3], > 100 µM (inactive); in [4] it was greater than 100 µM; in assay [6], > 100 µM (inactive); in [7], > 100 µM (inactive); in assay [8] it was > 100 µM (inactive). For the same compound, the GI50 is > 100 µM (inactive) in assay [9]; > 100 µM (inactive) in assay [10]; > 100 µM (inactive) in assay [11]; 18.4 µM (inactive) in [12]; 71.6 µM (inactive) in assay [20]; > 100 µM (inactive) in assay [13]. The GI50 in assay [14] was > 100 µM (inactive); in [15] it was 21.2 µM (inactive); in [17] it was > 100 µM (inactive); in [18], > 100 µM (inactive); in assay [19], > 100 µM (inactive).

For `COc1ccc2c(c1)C(N)=C(c1ccccc1)C2=O`, the GI50 in assay [1] was 51.3 µM (inactive); in [2] it was 34.4 µM (inactive); in assay [3], > 100 µM (inactive); in assay [4], greater than 100 µM; in [5] it was > 100 µM (inactive); in assay [6], 87.9 µM (inactive). The GI50 is 49 µM (inactive) in assay [8]; > 100 µM (inactive) in assay [9]; > 100 µM (inactive) in assay [11]; 8.75 µM (inactive) in [12]; > 100 µM (inactive) in [20]; > 100 µM (inactive) in assay [13]. The GI50 in assay [14] was 49.1 µM (inactive); in assay [15], 58.5 µM (inactive); in assay [17], > 100 µM (inactive); in [18], > 100 µM (inactive); in assay [19] it was > 100 µM (inactive).

Consider `O=[N+]([O-])/C=C1\COCc2cc3c(cc21)OCO3`, for which the GI50 was 14.4 µM (inactive) in [1]; 27.8 µM (inactive) in assay [2]; 13.4 µM (inactive) in assay [3]; 19.1 µM in assay [4]; 13 µM (inactive) in [5]; 34 µM (inactive) in assay [6]. The GI50 is 17.9 µM (inactive) in assay [7]; 42.7 µM (inactive) in [8]; 18.5 µM (inactive) in assay [9]; 27.2 µM (inactive) in assay [10]; 18.9 µM (inactive) in assay [12]; 10.6 µM (inactive) in [20]. Moreover, the GI50 in [13] was 19.7 µM (inactive); in [14], 19.6 µM (inactive); in assay [15] it was 24.5 µM (inactive); in assay [16], 18.9 µM (inactive); in [17] it was 26.4 µM (inactive); in assay [19], 30.9 µM (inactive).

In the case of `CCOC(=O)c1c(Br)c(-c2ccc([N+](=O)[O-])cc2)c(Br)n1C`, the GI50 in [1] is > 10 µM (inactive); in assay [2] it was > 10 µM (inactive); in assay [3], > 10 µM (inactive); in [4], greater than 10 µM; in [5] it was > 10 µM (inactive); in [6], > 10 µM (inactive). For the same compound, the GI50 in [8], in [9], in [10], in [11], in [12] and in assay [20] was > 10 µM (inactive) in each case. The GI50 is > 10 µM (inactive) in assay [13]; > 10 µM (inactive) in assay [14]; > 10 µM (inactive) in [15]; 9.16 µM (inactive) in assay [16]; > 10 µM (inactive) in assay [17]; > 10 µM (inactive) in assay [18]. Further, in [19], the GI50 is > 10 µM (inactive).

For `O=C(Nn1c(-c2ccccc2)nc2ccccc2c1=O)c1ccc(O)cc1`, the GI50 was > 100 µM (inactive) in assay [1]; > 100 µM (inactive) in [2]; > 100 µM (inactive) in assay [3]; greater than 100 µM in assay [4]; > 100 µM (inactive) in assay [6]; > 100 µM (inactive) in assay [7]. Moreover, the GI50 in assay [8], in assay [9], in [10], in assay [12], in assay [20] and in assay [13] was > 100 µM (inactive) in each case. The GI50 in assay [14], in [15], in assay [16], in assay [17], in assay [18] and in [19] was > 100 µM (inactive) in each case.

Turning to `N#CCC(=O)Nn1c(CC#N)nnc1Cc1ccccc1`, the GI50 was > 100 µM (inactive) in assay [1]; > 100 µM (inactive) in assay [2]; > 100 µM (inactive) in assay [3]; greater than 100 µM in [4]; > 100 µM (inactive) in assay [5]; > 100 µM (inactive) in assay [6]. For the same compound, the GI50 in assay [7], in assay [9], in assay [10], in assay [11], in [12] and in assay [13] was > 100 µM (inactive) in each case. Besides, the GI50 in [14], in [15], in assay [16], in assay [17] and in assay [19] was > 100 µM (inactive) in each case.

Regarding `CC(CO)CCNc1ncnc2c1ncn2CCC(=O)O` (configuration not stated), the GI50 in [1], in assay [2], in assay [3], in assay [5], in [6] and in assay [7] was > 100 µM (inactive) each time. Further, the GI50 in assay [8], in assay [9], in [10], in [12], in assay [20] and in assay [13] was > 100 µM (inactive) throughout. The GI50 in [14], in assay [15], in assay [16], in assay [17], in assay [18] and in [19] was > 100 µM (inactive) each time.

Take `O=C1/C(=C/c2ccc([N+](=O)[O-])cc2)CCCc2ccccc21`: the GI50 in assay [1] is > 100 µM (inactive); in assay [2], > 100 µM (inactive); in assay [3], > 100 µM (inactive); in assay [4], 69.2 µM; in assay [5] it was > 100 µM (inactive); in assay [6] it was > 100 µM (inactive). Besides, the GI50 in [8], in [9], in [10], in assay [11], in assay [12] and in assay [20] was > 100 µM (inactive) each time. The GI50 in assay [13] is > 100 µM (inactive); in assay [15] it was > 100 µM (inactive); in assay [16], > 100 µM (inactive); in assay [17] it was 76.2 µM (inactive); in assay [18], > 100 µM (inactive); in [19], > 100 µM (inactive).

As for `COc1cc2c[n+](C)c3c(c2cc1OC)Cc1cc2c(cc1-3)OCO2`, the GI50 is > 100 µM (inactive) in assay [1]; > 100 µM (inactive) in assay [2]; > 100 µM (inactive) in assay [3]; greater than 100 µM in [4]; > 100 µM (inactive) in [5]; > 100 µM (inactive) in assay [6]. The GI50 was > 100 µM (inactive) in assay [8]; > 100 µM (inactive) in assay [9]; > 100 µM (inactive) in [10]; > 100 µM (inactive) in [11]; 29.1 µM (inactive) in assay [12]; 71.4 µM (inactive) in assay [20]. The GI50 is > 100 µM (inactive) in [13]; > 100 µM (inactive) in assay [14]; 48.9 µM (inactive) in assay [15]; > 100 µM (inactive) in assay [16]; > 100 µM (inactive) in assay [17]; 87.3 µM (inactive) in assay [18].
